{"source": "patent US5696156A", "about": "“Triterpene derivatives with immunosuppressant activity” (Merck & Co. Inc., priority 1996, dated 1997)", "origin": "cited, not measured here", "tested_on": "Kv 1.3 channels", "conditions": "stated for the reference blocker that defines the efflux window", "note": "pIC50: −log10 of the molar value.", "data": [{"substance": "margatoxin (TIINVKCTSPKQCLPPCKAQFGQSAGAKCMNGKCKCYPH; UniProt P40755 1-39, looked up)", "values": [{"measurement": "pIC50", "result": 10.00}]}]}
